Reference: patent US6410556B1, “Modulators of protein tyrosine phosphateses (PTPases)” (Novo Nordisk A/S, priority 1999, dated 2002)

Biological target: T1, truncated form of PTP1B (first 321 amino acids) (Homo sapiens, UniProt P18031)
T1 construct: a truncated form of PTPI B (corresponding to the first 321 amino acids); made in house; host or cells: E. coli
T1 sequence (P18031 1-321 limits assumed): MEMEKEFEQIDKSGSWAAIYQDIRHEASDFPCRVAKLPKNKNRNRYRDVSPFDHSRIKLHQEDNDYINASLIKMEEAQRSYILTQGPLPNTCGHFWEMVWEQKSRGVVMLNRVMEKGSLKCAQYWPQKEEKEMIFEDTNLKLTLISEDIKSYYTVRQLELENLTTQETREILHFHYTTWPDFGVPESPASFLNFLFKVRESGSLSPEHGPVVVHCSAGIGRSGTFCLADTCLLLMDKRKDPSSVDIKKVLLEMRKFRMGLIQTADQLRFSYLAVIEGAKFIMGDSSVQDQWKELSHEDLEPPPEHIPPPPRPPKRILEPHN
Assay: Inhibition of PTP1B, p-nitrophenyl phosphate substrate, enzyme kinetic analysis
Format: biochemical
Details: truncated PTP1B expressed in E. coli; substrate p-nitrophenyl phosphate 0.16 to 10 mM; 50 mM HEPES pH 7.0; 25° C., 60 minutes
Protocol: The compounds are evaluated for biological activity with a truncated form of PTPI B (corresponding to the first 321 amino acids), which was expressed in E. coli and purified to apparent homogeneity using published procedures well-known to those skilled in the art. The enzyme reactions are carried out using standard conditions essentially as described by Burke et al. (Biochemistry 35; 15989-15996 (1996)). The assay conditions are as follows. Appropriate concentrations of the compounds of the invention are added to the reaction mixtures containing different concentrations of the substrate, p-nitrophenyl phosphate (range: 0.16 to 10 mM—final assay concentration). The buffer used was 50 mM HEPES pH 7.0, 100 mM sodium chloride, 0.1% (w/v) bovine serum albumin, 5 mM glutathione, and 1 mM EDTA. The reaction was started by addition of the enzyme and carried out in microtiter plates at 25° C. for 60 minutes. The reactions are stopped by addition of NaOH. The enzyme activity was determined by measurement of the absorbance at 405 nm with appropriate corrections for absorbance at 405 nm of the compounds and p-nitrophenyl phosphate. The data are analyzed using nonlinear regression fit to classical Michaelis Menten enzyme kinetic models. Inhibition is expressed as Ki values in nM.

| Structure (SMILES) | Ki |
| --- | --- |
| O=C(O)C(=O)Nc1sc2c(c1C(=O)O)CC(CN1Cc3c(O)cccc3C1=O)NC2 (stereo not shown) [Example 8, 5-(4-Hydroxy-1-oxo-1,3-dihydro-isoindol-2-ylmethyl)-2-(oxalyl-amino)-4,5,6,7-tetrahydro-thieno[2,3-c]pyridine-3-carboxylic acid] | 250 nM |
| O=C(O)C(=O)Nc1sc2c(c1C(=O)O)CC(CNC1=NS(=O)(=O)c3ccccc31)NC2 (stereo not shown) [Example 10, 5-((1,1-Dioxo-1H-benzo[d]isothiazol-3-ylamino)methyl)-2-(oxalyl-amino)-4,5,6,7-tetrahydro-thieno[2,3-c]pyridine-3-carboxylic acid] | 270 nM |
| O=C(O)C(=O)Nc1sc2c(c1C(=O)O)CCNC2CNC1=NS(=O)(=O)c2ccccc21 (stereo not shown) [Example 11, 7-((1,1-Dioxo-1H-benzo[d]isothiazol-3-ylamino)methyl)-2-(oxalyl-amino)-4,5,6,7-tetrahydro-thieno[2,3-c]pyridine-3-carboxylic acid] | 240 nM |
| COc1cccc2c1C(=O)N(CC1Cc3c(sc(NC(=O)C(=O)O)c3C(=O)O)CN1)C2 (stereo not shown) [Example 12, 5-(7-Methoxy-1-oxo-1,3-dihydro-isoindol-2-ylmethyl)-2-(oxalyl-amino)-4,5,6,7-tetrahydro-thieno[2,3-c]pyridine-3-carboxylic acid] | 570 nM |
| O=C(O)C(=O)Nc1sc2c(c1C(=O)O)CC(CNC(=O)C(=O)c1c[nH]c3ccccc13)NC2 (stereo not shown) [Example 36, 5-((2-(1H-indol-3-yl)-2-oxo-acetylamino)methyl)-2-(Oxalyl-amino)-4,5,6,7-tetrahydro-thieno[2,3-c]pyridine-3-carboxylic acid] | 830 nM |
| CC(=O)N(Cc1ccc(Oc2ccccc2)cc1)C[C@@H]1NCCc2c1sc(NC(=O)C(=O)O)c2C(=O)O [Example 42, 7-(S)-((Acetyl-(4-phenoxy-benzyl)amino)methyl)-2-(oxalyl-amino)-4,5,6,7-tetrahydro-thieno[2,3-c]pyridine-3-carboxylic acid] | 220 nM |
| COC(=O)c1cc(OC)cc2c1CN(CC1Cc3c(sc(NC(=O)C(=O)O)c3C(=O)O)CN1)C2=O (stereo not shown) [Example 46, 5-(6-Methoxy-4-methoxycarbonyl-1-oxo-1 ,3-dihydro-isoindol-2-ylmethyl)-2-(oxalyl-amino)-4,5,6,7-tetrahydro-thieno[2,3-c]pyridine-3-carboxylic acid] | 300 nM |
